According to the supplement of paper PMC11208160:

Assay: recombinant barcode read abundance after kanamycin selection (control-corrected) (log10(CPM+1)); higher = more efficient recombination; sequences stand for … in AGTGCAGAGAAAATCGGCCAGTTTTCTCTGCCTGCAGTCCGCATGCCGT…AGATTTATGCAGCGGACTGCCTTTCTCCCAAAGTGATAAACCGGACAGTATCATGGACCGGTTTTCCCGGTAATCCGTATTTGCAAGGTTGGTTTCACT; site = the 11-nt target
In short: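 Pooled oligos, each joining a target to an IS621 bridge RNA target-binding loop, were cloned and co-electroporated with a donor plasmid into E. coli. Selective plates carried chloramphenicol/ampicillin/kanamycin and 0.1 mM IPTG, while chloramphenicol/ampicillin LB agar served as control, with two replicates of each. Recombination efficiency rests on averaged, control-corrected counts per million of barcodes at recombinant junctions, shown as log10(CPM+1).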
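Also: IS621 recombinase and bridge RNA in Escherichia coli cells.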

Sequence: GCGCGAACTTGGGTTCTAACCTGTTGCCT (site GCGCGAACTAG)
- recombinant barcode read abundance (log10): 0.608

Sequence: GCGCGAACTTGGGTTCTAACCTGTTGCCT (site GCTCGAACTAG)
- recombinant barcode read abundance (log10): 0.125

Sequence: GCGGAATCTTGGGTTCTAACCTGTTGCCT (site GCGGAATCTAG)
- recombinant barcode read abundance (log10): 1.28

Sequence: GCGGAATCTTGGGTTCTAACCTGTTGCCT (site TCGGAATCTAG)
- recombinant barcode read abundance (log10): 0.469

Sequence: GCGGACGCTTGGGTTCTAACCTGTTGCCT (site CCGGACCCTAG)
- recombinant barcode read abundance (log10): 0.0428

Sequence: GCGGACGCTTGGGTTCTAACCTGTTGCCT (site GCGGACGCTAG)
- recombinant barcode read abundance (log10): 1.72

Sequence: GCGGGTCCTTGGGTTCTAACCTGTTGCGT (site GCGGGTCCTAC)
- recombinant barcode read abundance (log10): 2.98

Sequence: GCGGGTCCTTGGGTTCTAACCTGTTGCGT (site GCTGCTCCTAC)
- recombinant barcode read abundance (log10): 0.0517

Sequence: GCGGTTCCTTGGGTTCTAACCTGTTGCCT (site GCCGCTCCTAG)
- recombinant barcode read abundance (log10): 0.139

Sequence: GCGGTTCCTTGGGTTCTAACCTGTTGCCT (site GCGGTTCCTAG)
- recombinant barcode read abundance (log10): 1.96

Sequence: GCGTATCCTTGGGTTCTAACCTGTTGCCT (site GCGAATCCTAG)
- recombinant barcode read abundance (log10): 0.127

Sequence: GCGTATCCTTGGGTTCTAACCTGTTGCCT (site GCGCATCCTAG)
- recombinant barcode read abundance (log10): 0.0623

Sequence: GCGTATCCTTGGGTTCTAACCTGTTGCCT (site GCGGATCCTAG)
- recombinant barcode read abundance (log10): 0.23

Sequence: GCGTATCCTTGGGTTCTAACCTGTTGCCT (site GCGTATCCTAG)
- recombinant barcode read abundance (log10): 0.93

Sequence: GCGTCGTCTTGGGTTCTAACCTGTTGCCT (site GCATCGTCTAG)
- recombinant barcode read abundance (log10): 0.134

Sequence: GCGTCGTCTTGGGTTCTAACCTGTTGCCT (site GCCTCGTCTAG)
- recombinant barcode read abundance (log10): 0.193

Sequence: GCGTCGTCTTGGGTTCTAACCTGTTGCCT (site GCGTCGTCTAG)
- recombinant barcode read abundance (log10): 0.0822

Sequence: GCGTCGTCTTGGGTTCTAACCTGTTGCCT (site GCTTCGTCTAG)
- recombinant barcode read abundance (log10): 0.229

Sequence: GCGTCTCCTTGGGTTCTAACCTGTTGCAT (site GCGACTCCTAT)
- recombinant barcode read abundance (log10): 0.209

Sequence: GCGTCTCCTTGGGTTCTAACCTGTTGCAT (site GCGCCTCCTAT)
- recombinant barcode read abundance (log10): 0.012

Sequence: GCGTCTCCTTGGGTTCTAACCTGTTGCAT (site GCGGCTCCTAT)
- recombinant barcode read abundance (log10): 0.0731

Sequence: GCGTCTCCTTGGGTTCTAACCTGTTGCAT (site GCGTCTCCTAT)
- recombinant barcode read abundance (log10): 0.335

Sequence: GCGTTTGCTTGGGTTCTAACCTGTTGCCT (site GAGTTTGCTAG)
- recombinant barcode read abundance (log10): 0.106

Sequence: GCGTTTGCTTGGGTTCTAACCTGTTGCCT (site GCGTTTGCTAG)
- recombinant barcode read abundance (log10): 1.01

Sequence: GCGTTTGCTTGGGTTCTAACCTGTTGCCT (site GGGTTTGCTAG)
- recombinant barcode read abundance (log10): 0.0501

Sequence: GCGTTTGCTTGGGTTCTAACCTGTTGCCT (site GTGTTTGCTAG)
- recombinant barcode read abundance (log10): 0

Sequence: GCTAACACTTGGGTTCTAACCTGTTGCCT (site ACTAACACTAG)
- recombinant barcode read abundance (log10): 0.2

Sequence: GCTAACACTTGGGTTCTAACCTGTTGCCT (site CCTAACACTAG)
- recombinant barcode read abundance (log10): 0.153

Sequence: GCTAACACTTGGGTTCTAACCTGTTGCCT (site GCTAACACTAG)
- recombinant barcode read abundance (log10): 1.37

Sequence: GCTAACACTTGGGTTCTAACCTGTTGCCT (site TCTAACACTAG)
- recombinant barcode read abundance (log10): 0.075

Sequence: GCTAACCCTTGGGTTCTAACCTGTTGCGT (site GCGAACCCTCC)
- recombinant barcode read abundance (log10): 0

Sequence: GCTAACCCTTGGGTTCTAACCTGTTGCGT (site GCTAACCCTAC)
- recombinant barcode read abundance (log10): 3.05

Sequence: GCTAGGACTTGGGTTCTAACCTGTTGCTG (site CGGTCTGCTAT)
- recombinant barcode read abundance (log10): 0.163

Sequence: GCTAGGACTTGGGTTCTAACCTGTTGCTG (site GCTAGGACTCA)
- recombinant barcode read abundance (log10): 2.12

Sequence: GCTCAACCTTGGGTTCTAACCTGTTGCCT (site GATCAACCTAG)
- recombinant barcode read abundance (log10): 0.796

Sequence: GCTCAACCTTGGGTTCTAACCTGTTGCCT (site GCTCAACCTAG)
- recombinant barcode read abundance (log10): 1.6

Sequence: GCTCAACCTTGGGTTCTAACCTGTTGCCT (site GGTCAACCTAG)
- recombinant barcode read abundance (log10): 0.176

Sequence: GCTCAACCTTGGGTTCTAACCTGTTGCCT (site GTTCAACCTAG)
- recombinant barcode read abundance (log10): 0.126

Sequence: GCTCACTCTTGGGTTCTAACCTGTTGCTT (site GCTCACTCTAA)
- recombinant barcode read abundance (log10): 1.63

Sequence: GCTCACTCTTGGGTTCTAACCTGTTGCTT (site GTTCCCTCTAA)
- recombinant barcode read abundance (log10): 0.0084

Sequence: GCTCAGCCTTGGGTTCTAACCTGTTGCCT (site GCTCAGACTAG)
- recombinant barcode read abundance (log10): 0.0954

Sequence: GCTCAGCCTTGGGTTCTAACCTGTTGCCT (site GCTCAGCCTAG)
- recombinant barcode read abundance (log10): 1.14

Sequence: GCTCAGCCTTGGGTTCTAACCTGTTGCCT (site GCTCAGGCTAG)
- recombinant barcode read abundance (log10): 0.16

Sequence: GCTCAGCCTTGGGTTCTAACCTGTTGCCT (site GCTCAGTCTAG)
- recombinant barcode read abundance (log10): 0.072

Sequence: GCTCCGTCTTGGGTTCTAACCTGTTGCTT (site ACTCCGTCTTA)
- recombinant barcode read abundance (log10): 0.047

Sequence: GCTCCGTCTTGGGTTCTAACCTGTTGCTT (site GCTCCGTCTAA)
- recombinant barcode read abundance (log10): 0.644

Sequence: GCTCGACCTTGGGTTCTAACCTGTTGCTG (site CGCTCCTCTAT)
- recombinant barcode read abundance (log10): 0.18

Sequence: GCTCGACCTTGGGTTCTAACCTGTTGCTG (site GCTCGACCTCA)
- recombinant barcode read abundance (log10): 1.68

Sequence: GCTCGTACTTGGGTTCTAACCTGTTGCAT (site GCTCGTACTAT)
- recombinant barcode read abundance (log10): 1.47

Sequence: GCTCGTACTTGGGTTCTAACCTGTTGCAT (site TCGCGTACTAT)
- recombinant barcode read abundance (log10): 0.0401

Sequence: GCTGAGACTTGGGTTCTAACCTGTTGCCG (site GATGAGACTCG)
- recombinant barcode read abundance (log10): 0.218

Sequence: GCTGAGACTTGGGTTCTAACCTGTTGCCG (site GCTGAGACTCG)
- recombinant barcode read abundance (log10): 2.53

Sequence: GCTGGACCTTGGGTTCTAACCTGTTGCAT (site GCTCGTCCTAT)
- recombinant barcode read abundance (log10): 0.0463

Sequence: GCTGGACCTTGGGTTCTAACCTGTTGCAT (site GCTGGACCTAT)
- recombinant barcode read abundance (log10): 2.18

Sequence: GCTGGCCCTTGGGTTCTAACCTGTTGCCT (site GATGGCCCTAG)
- recombinant barcode read abundance (log10): 0.0865

Sequence: GCTGGCCCTTGGGTTCTAACCTGTTGCCT (site GCTGGCCCTAG)
- recombinant barcode read abundance (log10): 1.18

Sequence: GCTGGCCCTTGGGTTCTAACCTGTTGCCT (site GGTGGCCCTAG)
- recombinant barcode read abundance (log10): 0.0479

Sequence: GCTGGCCCTTGGGTTCTAACCTGTTGCCT (site GTTGGCCCTAG)
- recombinant barcode read abundance (log10): 0.481

Sequence: GCTGGTCCTTGGGTTCTAACCTGTTGCCT (site GCAGGTCCTAG)
- recombinant barcode read abundance (log10): 0.311

Sequence: GCTGGTCCTTGGGTTCTAACCTGTTGCCT (site GCCGGTCCTAG)
- recombinant barcode read abundance (log10): 0.431

Sequence: GCTGGTCCTTGGGTTCTAACCTGTTGCCT (site GCGGGTCCTAG)
- recombinant barcode read abundance (log10): 0.205

Sequence: GCTGGTCCTTGGGTTCTAACCTGTTGCCT (site GCTGGTCCTAG)
- recombinant barcode read abundance (log10): 1.75

Sequence: GCTTAAACTTGGGTTCTAACCTGTTGCCT (site ATGGCCTCTTA)
- recombinant barcode read abundance (log10): 0.0724

Sequence: GCTTAAACTTGGGTTCTAACCTGTTGCCT (site GCTTAAACTAG)
- recombinant barcode read abundance (log10): 1.04

Sequence: GCTTCCACTTGGGTTCTAACCTGTTGCCT (site ACTTCCACTAG)
- recombinant barcode read abundance (log10): 0.074

Sequence: GCTTCCACTTGGGTTCTAACCTGTTGCCT (site CCTTCCACTAG)
- recombinant barcode read abundance (log10): 0.24

Sequence: GCTTCCACTTGGGTTCTAACCTGTTGCCT (site GCTTCCACTAG)
- recombinant barcode read abundance (log10): 0.381

Sequence: GCTTCCACTTGGGTTCTAACCTGTTGCCT (site TCTTCCACTAG)
- recombinant barcode read abundance (log10): 0.196

Sequence: GCTTCGTCTTGGGTTCTAACCTGTTGCCT (site GCATCGTCTAG)
- recombinant barcode read abundance (log10): 0.427

Sequence: GCTTCGTCTTGGGTTCTAACCTGTTGCCT (site GCCTCGTCTAG)
- recombinant barcode read abundance (log10): 0.129

Sequence: GCTTCGTCTTGGGTTCTAACCTGTTGCCT (site GCGTCGTCTAG)
- recombinant barcode read abundance (log10): 0.0292

Sequence: GCTTCGTCTTGGGTTCTAACCTGTTGCCT (site GCTTCGTCTAG)
- recombinant barcode read abundance (log10): 0.393

Sequence: GGAAAAGCTTGGGTTCTAACCTGTTGCTT (site GGAAAAGCTAA)
- recombinant barcode read abundance (log10): 0.268

Sequence: GGAAAAGCTTGGGTTCTAACCTGTTGCTT (site TCTTCGACTCT)
- recombinant barcode read abundance (log10): 0.153

Sequence: GGAACGACTTGGGTTCTAACCTGTTGCGT (site CTCCGAGCTGT)
- recombinant barcode read abundance (log10): 0.0623

Sequence: GGAACGACTTGGGTTCTAACCTGTTGCGT (site GGAACGACTAC)
- recombinant barcode read abundance (log10): 1.93

Sequence: GGACACTCTTGGGTTCTAACCTGTTGCCT (site GGACACTCTAG)
- recombinant barcode read abundance (log10): 2.75

Sequence: GGACACTCTTGGGTTCTAACCTGTTGCCT (site GGACACTCTTA)
- recombinant barcode read abundance (log10): 1.09

Sequence: GGACATTCTTGGGTTCTAACCTGTTGCAT (site GGACATTCTAT)
- recombinant barcode read abundance (log10): 0.872

Sequence: GGACATTCTTGGGTTCTAACCTGTTGCAT (site GTCCATTCTAT)
- recombinant barcode read abundance (log10): 0.0875

Sequence: GGACCTACTTGGGTTCTAACCTGTTGCCA (site GAACCTACTTG)
- recombinant barcode read abundance (log10): 0.0276

Sequence: GGACCTACTTGGGTTCTAACCTGTTGCCA (site GGACCTACTTG)
- recombinant barcode read abundance (log10): 0.483

Sequence: GGACGCTCTTGGGTTCTAACCTGTTGCCT (site GGACGCTCTAG)
- recombinant barcode read abundance (log10): 1.83

Sequence: GGACGCTCTTGGGTTCTAACCTGTTGCCT (site GGTCGCTCTAG)
- recombinant barcode read abundance (log10): 0.113

Sequence: GGACGGCCTTGGGTTCTAACCTGTTGCGT (site CTACGGCCTAC)
- recombinant barcode read abundance (log10): 0.152

Sequence: GGACGGCCTTGGGTTCTAACCTGTTGCGT (site GGACGGCCTAC)
- recombinant barcode read abundance (log10): 2.53
